According to patent US8889638B2, “Stimulus-triggered prodrugs” (The Regents of the University of California, priority 2010, dated 2014):
pIC50: −log10 of the molar value.

What was measured:
[1] = target: T1, MMP-9 (catalytic domain, human, recombinant) (Homo sapiens, UniProt P14780); experiment: MMP-9 inhibition assay of boronic ester proinhibitors (IC50; activation with H2O2); type: biochemical; details: for inhibition of MMP-9 with no hydrogen peroxide present / inhibition at 10 µM: 10 μM; for inhibition at 10 µM: 1 h of activation, read-out: inhibition of MMP-9 after activation with 100 μM H2O2; for pIC50: proinhibitors without H2O2, read-out: IC50 against MMP-9
T1 construct: MMP-9 (catalytic domain, human, recombinant); purchased BIOMOL International
T1 sequence (P14780 107-444 limits assumed): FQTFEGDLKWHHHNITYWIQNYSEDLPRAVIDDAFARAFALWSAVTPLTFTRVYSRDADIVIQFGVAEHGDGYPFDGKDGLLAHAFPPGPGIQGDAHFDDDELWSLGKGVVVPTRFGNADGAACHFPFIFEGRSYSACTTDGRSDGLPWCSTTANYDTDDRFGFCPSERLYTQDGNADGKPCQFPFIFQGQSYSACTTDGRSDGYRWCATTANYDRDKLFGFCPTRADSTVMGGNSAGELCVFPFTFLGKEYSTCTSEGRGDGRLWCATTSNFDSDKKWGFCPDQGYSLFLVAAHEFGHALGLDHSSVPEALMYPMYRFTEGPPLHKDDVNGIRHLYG
Experimental: (§1) MMP-9 (catalytic domain, human, recombinant) and MMP-12 (catalytic domain, human, recombinant) were purchased from Enzo Life Sciences. The assays were carried out in 96-well plates using a Bio-Tek Flx 800 plate reader. IC50 values were obtained for proinhibitors B17 and B18 against MMP-9 and MMP-12. Serial dilutions of the compounds dissolved in DMSO were incubated at 37° C. for 30 minutes with 20 μL of the appropriate MMP (0.45 U/mL for MMP-9 and 0.35 U/mL for MMP-12) in MMP assay buffer (50 mM HEPES, 10 mM CaCl2, 0.10% Brij-35, pH 7.5), for a total volume of 99 pt. The reaction was initiated by the addition of 1 μL (400 μM) of the fluorescent substrate (Mca-Pro-Leu-Gly-Leu-Dpa-Ala-Arg-NH2 where Mca=(7-methoxycoumarin-4-yl)-acetyl and Dpa=N-3-(2,4-dinitrophenyl)-L-α-β-diaminopropionyl)) and kinetic activity was measured every minute for 20 min with excitation and emission wavelengths at 335 nm and 405 nm, respectively. Measurements were performed in duplicate. The percent inhibition was plotted versus the inhibitor concentration. A linear fit of the data for each experiment gives the IC50 value of the inhibitor where y=50%.
(§2) MMP activity in the presence of H2O2 was evaluated with both MMP-9 and MMP-12 with 1 h of activation at concentrations close to their IC50 values. Using the calculated rate constants for the protected ZBGs B19 and B20, it was determined that 1 h of activation time for each proinhibitor with 100 μM H2O2 will provide enough 1,2-HOPO-2 or PY-2 to inhibit the MMPs at 50%. For example, for proinhibitor B17 with MMP-9, if the rate=k[B17][H2O2] and k=3.9 M^−1s^−1, [B17]=10 μM, and [H2O2]=100 μM, the rate of conversion would be 3.9×10^−9 M/s. Therefore, activation for 1 h would release 14 μM 1,2-HOPO-2, or enough inhibitor to provide approximately 50% inhibition of MMP-9 (IC50 value for 1,2-HOPO-2 against MMP-9 is ˜6 μM).
(§3) In each well, 1 μL of proinhibitors B17 and B18 and the inhibitors 1,2-HOPO-2 and PY-2 in DMSO (1 mM for MMP-9 or 5 μM for MMP-12) were incubated for 1 h at 37° C. with 10 μL H2O2 (1 mM in HEPES buffer, pH 7.5) in MMP assay buffer for a total volume of 79 pt. […] After activation of the proinhibitors, 20 μL of the appropriate MMP (0.45 U/mL for MMP-9 and 0.35 U/mL for MMP-12) was added and incubated for an additional 30 min. The reaction was initiated by the addition of 1 pt (400 μM) of the fluorescent substrate and kinetic activity was measured every minute for 20 min with excitation and emission wavelengths at 335 nm and 405 nm, respectively. Enzyme activity with inhibitor was calculated with respect to the control experiment (no inhibitor present). Measurements were performed in duplicate in two independent experiments.

[2] = target: T2, MMP-12 (catalytic domain, human recombinant) (Homo sapiens, UniProt P39900); experiment: MMP-12 inhibition assay of boronic ester proinhibitors (IC50; activation with H2O2); type: biochemical; parameters: MMP-12 (catalytic domain, human, recombinant); purchased Enzo Life Sciences; details: for inhibition of MMP-12 with no hydrogen peroxide present / inhibition at 0.05 µM: 50 nM; for inhibition at 0.05 µM: 1 h of activation, read-out: inhibition of MMP-12 after activation with 100 μM H2O2; for IC50 against MMP-12: proinhibitors without H2O2
T2 sequence (P39900 106-263 limits assumed): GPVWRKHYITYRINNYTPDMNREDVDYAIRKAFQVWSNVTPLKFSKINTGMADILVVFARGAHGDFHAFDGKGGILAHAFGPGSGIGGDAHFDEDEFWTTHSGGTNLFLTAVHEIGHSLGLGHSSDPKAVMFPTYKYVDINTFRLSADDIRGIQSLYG
Experimental: as §1, §2, §3

[3] = Hydrolytic stability of sulfonate esters in HEPES buffer; type: physicochemical
Experimental: (§4) Absorption spectra of compounds were taken on a Perkin-Elmer Lambda 25 UV-Visible Spectrophotometer. To a 1.0 mL solution at 0.05 mM concentration of each compound in HEPES buffer (50 mM, pH 7.5) was added H2O2 (10 μL, 0.09M in HEPES) and absorption spectra were monitored over time at room temperature. Hydrolytic stability was measured by monitoring each sample in HEPES buffer over a 24 hour time period.

[4] = Cleavage of sulfonate ester PZBGs and proMMPi by H2O2 (UV-Vis, rate constant, HPLC); type: physicochemical; details: 50 μM in HEPES buffer, room temperature
Experimental: as §4
The pseudo-first order rate constant was calculated following literature procedure. To a 1.0 mL solution of compounds PZBG-1a, PZBG-1b, PZBG-1e, PZBG-5a, and PZBG-5b in HEPES buffer at 50 μM was added H2O2 to final concentrations of 150 μM, 250 μM, 500 μM, 750 μM, and 900 μM. Spectra were monitored over 15-30 min at room temperature with at least 50 spectra recorded at every concentration. The change in absorption at 298 nm for PZBG-1a and PZBG-1b were monitored, while the change in absorption at 288 nm was recorded for PZBG-1e, and 310 nm for PZBG-5a and PZBG-5b. The rate constant (kobs) was found from the linear slope of ln [(A−AZBG)/(Ao−AZBG)] vs. time where AZBG is the absorbance of a 50 μM sample of the ZBG or full-length inhibitor and AO is the initial absorbance of PZBG-1a, PZBG-1b, PZBG-1e, PZBG-5a, and PZBG-5b. The rate of conversion was determined from the slope of the line of kobs vs. [H2O2].
Analytical HPLC was performed on a HP Series 1050 system equipped with a Vydac® C18 reverse phase column (218 TP, 250×4.6 mm, 5 μm). […] Starting with 95% A and 5% B, an […] gradient was run for 15 min to a final solvent mixture of 5% A and 95% B, which was held for 5 min before ramping back down to 95% A and 5% B in 2 min and holding for an additional 4 min. Compounds ZBG-1a and PZBG-1a were prepared in HEPES buffer (50 mM, pH 7.5) at a concentration of 1 mM and retention times were determined. To evaluate cleavage by H2O2, a 1 mM solution of PZBG-1a in HEPES buffer was reacted with a 20-fold excess of H2O2 before analyzing under identical HPLC conditions as before.

[5] = target: T2, MMP-12 (catalytic domain, human recombinant); experiment: MMP-12 fluorescence-based inhibition assay with and without H2O2 (sulfonate ester proMMPi); type: biochemical; parameters: MMP-12 (catalytic domain, human recombinant); purchased Enzo Life Sciences; details: 50 nM; for inhibition at 0.05 µM: 30 min of incubation
Experimental: MMP-12 (catalytic domain, human recombinant) was purchased from Enzo Life Sciences. The assays were carried out in a 96-well plate using a Bio-Tex Flx 800 plate reader. The activity of MMP-12 was evaluated after a 30 min incubation in the presence of H2O2 and proMMPi. The concentration of proMMPi used was selected to be close to the IC50 value of the parent full-length inhibitors, 1,2-HOPO-2 and PY-2[38]. In each well, 1 μL of proinhibitors PZBG-5a, PZGB-5b, and PZBG-6a and the inhibitors 1,2-HOPO-2 and PY-2 in DMSO (5 μM) were incubated for 30 min at 37° C. with 20 μL of MMP-12 (0.35 U/mL), 10 μL H2O2 (1 mM in HEPES buffer, pH 7.5), and MMP assay buffer (50 mM HEPES, 10 mM CaCl2, 0.10% Brij-35, pH 7.5) for a total volume of 99 μL. […] The reaction was initiated by the addition of 1 μL (400 μM) of the fluorescent substrate (Mca-Pro-Leu-Gly-Leu-Dpa-Ala-Arg-NH2 where Mca=(7-methoxycoumarin-4-yl)-acetyl and Dpa=N-3-(2,4-dinitrophenyl)-L-α-β-diaminopropionyl)) after the 30 minute incubation period and kinetic activity was measured every minute for 20 minutes with excitation and emission wavelengths at 335 nm and 405 nm, respectively. Enzyme activity with inhibitor was calculated with respect to the control experiment—no inhibitor present. Measurements were performed in duplicate in two independent experiments.

[6] = read-out: inhibition of MMP-12 after treatment with 100 μM H2O2
[7] = read-out: inhibition of MMP-12 before treatment with H2O2

## CC1(C)OB(c2ccc(COn3c(C(=O)NCc4ccc(-c5ccccc5)cc4)cccc3=O)cc2)OC1(C)C [Compound B17, N-([1,1′-biphenyl]-4-ylmethyl)-6-oxo-1-((4-(4,4,5,5-tetramethyl-1,3,2-dioxaborolan-2-yl)benzyl)oxy)-1,6-dihydropyridine-2-carboxamide]
[1]
  inhibition of MMP-9 with no hydrogen peroxide present: little inhibition
  inhibition at 10 µM: 50%
  pIC50: < 3.00
[2]
  inhibition of MMP-12 with no hydrogen peroxide present: little inhibition
  inhibition at 0.05 µM: 50%
  IC50 against MMP-12: micromolar range

## CC1(C)OB(c2ccc(COc3c(C(=O)NCc4ccc(-c5ccccc5)cc4)occc3=O)cc2)OC1(C)C [Compound B18, N-([1,1′-biphenyl]-4-ylmethyl)-4-oxo-3-((4-(4,4,5,5-tetramethyl-1,3,2-dioxaborolan-2-yl)benzyl)oxy)-4H-pyran-2-carboxamide]
[1]
  inhibition of MMP-9 with no hydrogen peroxide present: little inhibition
  inhibition at 10 µM: 50%
  pIC50: < 3.00
[2]
  inhibition of MMP-12 with no hydrogen peroxide present: little inhibition
  inhibition at 0.05 µM: 50%
  IC50 against MMP-12: micromolar range

## O=c1ccccn1OS(=O)(=O)c1ccccc1 [PZBG-1a, 2-Oxopyridin-1(2H)-yl benzenesulfonate]
[3]; in 6 h
  cleavage in buffer: ~50%
[4]
  pseudo-first order rate constant with an excess of H2O2: 0.7 M⁻¹ s⁻¹

## Cc1ccc(S(=O)(=O)On2ccccc2=O)cc1 [PZBG-1b, 2-Oxopyridin-1(2H)-yl-4-methylbenzenesulfonate]
[3]; in 24 h
  cleavage in buffer: ~30%
[4]
  pseudo-first order rate constant with an excess of H2O2: 0.3 M⁻¹ s⁻¹

## O=C(NCc1ccc(-c2ccccc2)cc1)c1cccc(=O)n1OS(=O)(=O)c1ccccc1 [PZBG-5a, 6-(([1,1′-Biphenyl]-4-ylmethyl)carbamoyl)-2-Oxopyridin-1(2H)-yl benzenesulfonate]
[3]; after 9 h
  hydrolysis in buffer alone: ~50%
[5]; [6]
  inhibition at 0.05 µM: ~30%
[5]; [7]
  inhibition at 0.05 µM: ~20%
[4]
  pseudo-first order rate constant with an excess of H2O2 (full-length proMMPi): 0.3 M⁻¹ s⁻¹

## O=C(O)c1ccc(S(=O)(=O)On2c(C(=O)NCc3ccc(-c4ccccc4)cc3)cccc2=O)cc1 [PZBG-5b, 4-(((6-(([1,1′-Biphenyl]-4-ylmethyl)carbamoyl)-2-Oxopyridin-1(2H)yl)oxy)sulfonyl)benzoic acid]
[3]; after 3 h
  hydrolysis in buffer alone: ~50%
[5]; [6]
  inhibition at 0.05 µM: ~50%
[5]; [7]
  inhibition at 0.05 µM: ~30%
[4]
  pseudo-first order rate constant with an excess of H2O2 (full-length proMMPi): 1.1 M⁻¹ s⁻¹

## O=C(NCc1ccc(-c2ccccc2)cc1)c1occc(=O)c1OS(=O)(=O)c1ccccc1 [PZBG-6a, 2-(([1,1′-Biphenyl]-4-ylmethyl)carbamoyl)-4-oxo-4H-pyran-3-yl benzenesulfonate]
[5]; negative control
  change in inhibitory activity against MMP-12 upon exposure to H2O2: no significant change in inhibitory activity
